According to patent publication US10369130B2, “Antibacterial compounds” (AZIENDE CHIMICHE RIUNITE ANGELINI FRANCESCO A.C.R.A.F. …, priority 2014, dated 2019):
Counter-ions that a name gives are not always drawn.

Experiments:
Type in all cases: biochemical
Settings in all cases: single concentration (200, 100 or 50 μM), in duplicate, versus the positive control (vehicle)
Topoisomerase IV [1] = biological target: T1, Topoisomerase IV (Escherichia coli, UniProt P0AFI2+P20083); experiment: Topoisomerase IV decatenation assay (E. coli)
T1 construct: purchased Inspiralis, UK
Experimental: (§1) The above compounds were tested for the inhibition of the enzyme DNA gyrase in a gyrase supercoiling assay and for the inhibition of the enzyme topoisomerase IV in a decatenation assay, in both Gram positive and Gram negative bacteria, according to the following methods.
(§2) Both the assays were carried out according to a set-up method modified from the article to Blanche F, et al. “Differential Behaviors of Staphylococcus aureus and Escherichia coli Type II DNA Topoisomerases”, Antimicrob.
(§3) The compounds were screened at single concentration (200, 100 or 50 μM), in duplicate.
(§4) Ciprofloxacin and novobiocin were used as reference compounds, at single concentration of 200 and 50 μM, respectively.
(§5) Topoisomerase IV Decatenation Assay
(§6) S. aureus and E. coli Topoisomerase IV decatenation kits (Inspiralis, UK) were used. A master mix with a total volume sufficient for the number of reactions to perform was prepared with the following reagents: 5× assay buffer (50 mM HEPES-KOH (pH 7.6), 100 mM potassium glutamate, 10 mM magnesium acetate, 10 mM DTT, 1 mM ATP, 50 μg/ml albumin), kDNA substrate (200 ng/reaction), RNase-DNase free water. Aliquots of this mix were dispensed in each tube, then 10× compound stock solutions or vehicle control (DMSO), were added in each reaction tube.
(§7) Reaction was started with Topoisomerase IV enzyme (0.5 U/reaction) addition.
(§8) A sample added with an equal volume of dilution buffer was used as negative control (without enzyme).
(§9) The reaction tubes were gentle vortexed and incubated 30 minutes at 37° C. Each reaction was stopped by adding 30 μl of Stop Buffer and 30 μl of chloroform/isoamyl alcohol (24/1), briefly vortexed for 5-10 seconds and centrifuged at 20000×g for 2 minutes. Samples taken from the upper phase were loaded into 1% agarose gel and subjected to electrophoresis for 1 hour at 80V constant voltage in TAE (40 mM Tris-acetate, 2 mM EDTA).
(§10) Data acquisition and analysis. Due to the high molecular mass, kDNA could not enter an agarose gel under normal electrophoresis conditions, but remained in the wells. In the presence of Topo IV topoisomerase mini-circles (2.5 Kb) were released from kDNA by decatenation and were quickly and easily resolved in the gel at relatively high voltages.
(§11) Bands were visualized by ethidium bromide staining (dil 1:20000) for 30 minutes followed by destaining in distilled water for 10 minutes.
(§12) For single concentration screening assay, in order to evaluate the compounds activity on the enzymes, the bands of decatenated DNAs in the gel were photographed by a digital imaging system ImageQuant LAS 4000 (GE Healthcare) according to manufacturer's instructions.
(§13) The fluorescent intensity of each band was analyzed by ImageQuant TL software and it was expressed as volume (volume of the uncalibrated quantity of material in the image feature after subtraction of the background intensity by using rolling ball method).
(§14) Each band intensity was compared, as percentage, to vehicle sample band intensity, which served as positive control, on the same gel.
(§15) Inhibitory activity was expressed as percent of inhibition versus the positive control.

Topoisomerase IV [2] = biological target: T2, Topoisomerase IV (Staphylococcus aureus, UniProt P0C1S7+P0C1U9); experiment: Topoisomerase IV decatenation assay (S. aureus)
T2 construct: purchased Inspiralis, UK
Experimental: as §1, §2, §3, §4, §5, §6, §7, §8, §9, §10, §11, §12, §13, §14, §15

DNA gyrase [3] = biological target: T3, DNA gyrase (Escherichia coli, UniProt P0AES4+P0AES6); experiment: DNA gyrase supercoiling assay (E. coli)
T3 construct: purchased Inspiralis, UK
Experimental: as §1, §2, §3, §4
(§16) DNA Gyrase Supercoiling Assay.
(§17) Reagents from S. aureus and E. coli Gyrase Supercoiling Assay kits (Inspiralis, UK) were used. A master mix with a total volume sufficient for the number of reactions to perform was prepared with the following reagents: 5× assay buffer, relaxed pBR322 substrate (0.5 μg/reaction), RNase-DNase free water. Aliquotes of this mix were dispensed in each tube, then 10× compound stock solutions or vehicle control (DMSO), were added to each reaction tube.
(§18) Reaction was started with E. Coli (2 U/reaction) or S. aureus (1 U/reaction) gyrase enzyme addition.
as §8
(§19) The reaction tubes were gentle vortexed and incubated 30 minutes at 37° C. Each reaction was stopped by adding 30 μl of Stop Buffer and 30 μl chloroform/isoamyl alcohol (24/1), briefly vortexed for 5-10 seconds and centrifuged at 20000×g for 2 minutes. Samples were loaded onto 1% agarose gel and subjected to electrophoresis for 1 hour at 80V constant voltage in TAE (40 mM Tris-acetate, 2 mM EDTA).
(§20) Data acquisition and analysis. Treatment of relaxed pBR322 with DNA gyrase converted the relaxed topoisomers (DNAs of different linking number) to the supercoiled form of the plasmid, which migrates faster on an agarose gel. An upper band might also be visible, which consists of open-circular (nicked) DNA which is present in the relaxed substrate but co-migrates with some of the relaxed topoisomers.
as §11
(§21) In order to evaluate the compounds activity on the enzyme, the bands of supercoiled DNAs in the gel were photographed by a digital imaging system ImageQuant LAS 4000 (GE Healthcare) according to manufacturer's instructions.
(§22) The fluorescent intensity of each band was analysed by ImageQuant TL software and it was expressed as volume (volume of the uncalibrated quantity of material in the image feature after subtraction of the background intensity by using rolling ball method).
as §14, §15

DNA gyrase [4] = biological target: T4, DNA gyrase (Staphylococcus aureus, UniProt P0A0K8+P20831); experiment: DNA gyrase supercoiling assay (S. aureus)
T4 construct: purchased Inspiralis, UK
Experimental: as §1, §2, §3, §4, §16, §17, §18, §8, §19, §20, §11, §21, §22, §14, §15

T1 sequence (P20083 whole entry): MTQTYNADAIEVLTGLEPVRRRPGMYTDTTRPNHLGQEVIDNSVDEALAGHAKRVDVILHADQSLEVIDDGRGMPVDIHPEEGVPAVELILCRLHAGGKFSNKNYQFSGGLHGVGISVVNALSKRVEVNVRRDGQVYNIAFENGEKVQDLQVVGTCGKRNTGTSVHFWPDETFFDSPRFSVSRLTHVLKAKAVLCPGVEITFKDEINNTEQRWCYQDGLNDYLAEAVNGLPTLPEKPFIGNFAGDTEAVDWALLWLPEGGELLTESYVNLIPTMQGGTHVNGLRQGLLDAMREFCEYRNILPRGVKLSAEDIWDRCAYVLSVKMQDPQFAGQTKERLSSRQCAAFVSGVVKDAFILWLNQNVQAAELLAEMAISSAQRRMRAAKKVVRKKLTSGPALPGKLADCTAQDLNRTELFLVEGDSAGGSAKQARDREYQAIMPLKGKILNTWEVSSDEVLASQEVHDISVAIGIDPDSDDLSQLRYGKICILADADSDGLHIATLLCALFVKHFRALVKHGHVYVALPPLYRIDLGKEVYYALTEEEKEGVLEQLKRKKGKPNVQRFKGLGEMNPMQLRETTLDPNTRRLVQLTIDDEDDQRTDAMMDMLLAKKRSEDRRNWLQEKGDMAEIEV
T1 sequence (P0AFI2 whole entry): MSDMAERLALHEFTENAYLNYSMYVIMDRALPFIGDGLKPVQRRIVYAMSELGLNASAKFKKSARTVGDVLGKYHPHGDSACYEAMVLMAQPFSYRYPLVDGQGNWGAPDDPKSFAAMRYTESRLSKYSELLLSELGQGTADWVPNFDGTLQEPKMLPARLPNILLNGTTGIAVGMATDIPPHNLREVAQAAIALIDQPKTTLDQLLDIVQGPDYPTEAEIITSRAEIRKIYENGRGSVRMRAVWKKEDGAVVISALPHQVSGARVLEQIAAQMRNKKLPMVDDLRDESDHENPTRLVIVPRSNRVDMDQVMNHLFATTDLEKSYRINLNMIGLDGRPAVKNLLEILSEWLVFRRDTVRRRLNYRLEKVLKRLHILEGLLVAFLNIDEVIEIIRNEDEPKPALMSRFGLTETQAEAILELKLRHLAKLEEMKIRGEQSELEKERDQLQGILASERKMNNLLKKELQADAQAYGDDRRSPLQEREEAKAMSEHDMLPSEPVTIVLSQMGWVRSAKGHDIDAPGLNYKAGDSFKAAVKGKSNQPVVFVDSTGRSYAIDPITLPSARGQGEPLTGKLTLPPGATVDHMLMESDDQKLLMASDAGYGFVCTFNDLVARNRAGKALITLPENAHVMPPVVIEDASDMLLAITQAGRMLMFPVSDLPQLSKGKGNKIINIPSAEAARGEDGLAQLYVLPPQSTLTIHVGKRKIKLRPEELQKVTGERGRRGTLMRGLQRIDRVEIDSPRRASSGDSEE
T2 sequence (P0C1S7 whole entry): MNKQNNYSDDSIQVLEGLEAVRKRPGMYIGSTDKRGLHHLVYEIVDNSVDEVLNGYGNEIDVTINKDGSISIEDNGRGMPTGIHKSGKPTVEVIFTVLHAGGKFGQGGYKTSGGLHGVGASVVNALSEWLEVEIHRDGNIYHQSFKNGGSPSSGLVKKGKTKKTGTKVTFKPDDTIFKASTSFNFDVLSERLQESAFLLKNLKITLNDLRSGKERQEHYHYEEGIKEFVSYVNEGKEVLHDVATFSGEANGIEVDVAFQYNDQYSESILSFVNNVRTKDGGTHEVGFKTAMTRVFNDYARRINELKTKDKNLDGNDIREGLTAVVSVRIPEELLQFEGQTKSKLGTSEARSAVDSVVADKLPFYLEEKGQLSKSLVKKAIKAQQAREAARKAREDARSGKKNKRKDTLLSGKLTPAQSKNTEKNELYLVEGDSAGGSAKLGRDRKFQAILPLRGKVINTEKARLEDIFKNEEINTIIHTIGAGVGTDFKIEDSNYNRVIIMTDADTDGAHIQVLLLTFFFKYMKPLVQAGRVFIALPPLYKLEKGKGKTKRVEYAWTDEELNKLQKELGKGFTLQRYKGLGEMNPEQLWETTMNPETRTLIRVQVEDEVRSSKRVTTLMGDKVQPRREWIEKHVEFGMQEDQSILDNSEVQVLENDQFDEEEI
T2 sequence (P0C1U9 whole entry): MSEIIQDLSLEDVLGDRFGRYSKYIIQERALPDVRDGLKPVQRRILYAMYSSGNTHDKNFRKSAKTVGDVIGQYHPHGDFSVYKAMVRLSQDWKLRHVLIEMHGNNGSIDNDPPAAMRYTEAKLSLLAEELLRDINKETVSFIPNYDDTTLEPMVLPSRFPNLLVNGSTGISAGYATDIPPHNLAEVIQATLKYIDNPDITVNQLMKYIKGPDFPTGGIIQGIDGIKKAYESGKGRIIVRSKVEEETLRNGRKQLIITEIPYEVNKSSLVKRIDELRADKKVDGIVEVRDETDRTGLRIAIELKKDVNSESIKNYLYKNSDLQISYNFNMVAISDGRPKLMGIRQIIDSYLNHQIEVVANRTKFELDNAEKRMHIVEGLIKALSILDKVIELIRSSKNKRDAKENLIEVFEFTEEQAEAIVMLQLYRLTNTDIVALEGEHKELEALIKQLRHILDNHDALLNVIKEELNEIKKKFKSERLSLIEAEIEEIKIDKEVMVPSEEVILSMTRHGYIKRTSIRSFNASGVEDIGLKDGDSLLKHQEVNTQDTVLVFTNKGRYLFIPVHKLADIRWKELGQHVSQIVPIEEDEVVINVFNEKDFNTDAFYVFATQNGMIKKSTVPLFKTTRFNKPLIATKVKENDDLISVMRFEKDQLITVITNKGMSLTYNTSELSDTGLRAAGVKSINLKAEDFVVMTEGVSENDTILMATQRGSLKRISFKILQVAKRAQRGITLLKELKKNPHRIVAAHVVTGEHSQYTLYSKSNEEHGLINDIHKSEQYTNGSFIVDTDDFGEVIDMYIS
T4 sequence (P20831 whole entry): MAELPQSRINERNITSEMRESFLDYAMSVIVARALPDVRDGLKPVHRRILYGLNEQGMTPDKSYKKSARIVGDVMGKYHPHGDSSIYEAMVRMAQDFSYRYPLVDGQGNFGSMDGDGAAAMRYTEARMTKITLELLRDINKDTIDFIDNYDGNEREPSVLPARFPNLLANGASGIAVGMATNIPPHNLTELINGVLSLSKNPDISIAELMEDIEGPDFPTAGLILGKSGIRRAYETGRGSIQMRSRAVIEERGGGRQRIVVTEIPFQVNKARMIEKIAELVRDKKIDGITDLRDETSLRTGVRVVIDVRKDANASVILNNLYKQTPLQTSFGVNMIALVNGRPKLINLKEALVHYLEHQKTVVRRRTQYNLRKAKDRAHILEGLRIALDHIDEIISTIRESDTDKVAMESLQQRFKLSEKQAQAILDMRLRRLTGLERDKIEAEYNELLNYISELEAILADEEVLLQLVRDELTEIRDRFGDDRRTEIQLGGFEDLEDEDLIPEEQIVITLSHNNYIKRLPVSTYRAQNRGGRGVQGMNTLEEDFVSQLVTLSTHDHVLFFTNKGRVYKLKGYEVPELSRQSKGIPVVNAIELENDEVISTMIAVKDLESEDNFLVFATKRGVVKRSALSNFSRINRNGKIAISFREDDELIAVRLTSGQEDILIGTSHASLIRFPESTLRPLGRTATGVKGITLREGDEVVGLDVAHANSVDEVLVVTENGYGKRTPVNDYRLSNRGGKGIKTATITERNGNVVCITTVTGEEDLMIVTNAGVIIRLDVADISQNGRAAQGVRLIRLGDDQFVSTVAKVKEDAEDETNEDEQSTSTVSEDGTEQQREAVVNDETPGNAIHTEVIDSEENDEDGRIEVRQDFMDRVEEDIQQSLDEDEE
T4 sequence (P0A0K8 whole entry): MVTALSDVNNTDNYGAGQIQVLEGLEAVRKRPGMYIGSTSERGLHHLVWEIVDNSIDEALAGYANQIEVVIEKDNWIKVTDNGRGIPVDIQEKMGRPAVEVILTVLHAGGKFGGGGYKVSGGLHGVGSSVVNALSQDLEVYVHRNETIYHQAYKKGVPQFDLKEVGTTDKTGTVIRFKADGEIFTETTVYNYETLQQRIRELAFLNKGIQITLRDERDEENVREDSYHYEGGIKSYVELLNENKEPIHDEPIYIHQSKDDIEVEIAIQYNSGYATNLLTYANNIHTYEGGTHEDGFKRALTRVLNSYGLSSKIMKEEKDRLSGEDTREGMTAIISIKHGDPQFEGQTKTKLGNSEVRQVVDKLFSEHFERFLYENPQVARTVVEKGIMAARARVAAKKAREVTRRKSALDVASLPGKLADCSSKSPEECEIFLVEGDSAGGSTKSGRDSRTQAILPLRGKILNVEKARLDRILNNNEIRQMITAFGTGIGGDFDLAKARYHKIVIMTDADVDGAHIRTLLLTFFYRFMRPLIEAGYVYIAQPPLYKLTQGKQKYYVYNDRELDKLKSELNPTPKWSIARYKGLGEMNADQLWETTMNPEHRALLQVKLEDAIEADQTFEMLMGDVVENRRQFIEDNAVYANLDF

Row | SMILES | % inhibition Topo IV (Topoisomerase IV [1]) | % inhibition Topo IV (Topoisomerase IV [2]) | % inhibition DNA gyrase (DNA gyrase [3]) | % inhibition DNA gyrase (DNA gyrase [4])
1 | COC(=O)C1CN(c2nccc3ccccc23)CCN1CCCNc1cc(=O)oc2ccccc12 (stereo not shown) [Compound 81, methyl 4-(isoquinolin-1-yl)-1-{3-[(2-oxo-2H-chromen-4-yl)amino]propyl}piperazine-2-carboxylate hydrochloride] | n/a (n/a = not active) | n/a (n/a = not active) | 80% | n/a (n/a = not active)
2 | Fc1ccc(F)c(CNCCCN2CCN(c3nccc4ccccc34)CC2)c1 [Compound 38, N-(2,5-difluorobenzyl)-3-[4-(isoquinolin-1-yl)piperazin-1-yl]propan-1-amine hydrochloride] | n/a (n/a = not active) | n/a (n/a = not active) | n/a (n/a = not active) | 63%
3 | O=C(O)C[C@@H](NC[C@@H](O)CN1CCN(c2nccc3ccc(F)cc23)CC1)c1ccccc1 [Compound 141, (3R)-3-({(2R)-3-[4-(7-fluoroisoquinolin-1-yl)piperazin-1-yl]-2-hydroxypropyl}amino)-3-phenylpropanoic acid] | n/a (n/a = not active) | n/a (n/a = not active) | n/a (n/a = not active) | 65%
4 | O=C(O)CC(NC[C@H](O)CN1CCN(c2nccc3ccc(F)cc23)CC1)C1CCCCC1 (stereo partly drawn) [Compound 137, 3-cyclohexyl-3-({(2S)-3-[4-(7-fluoroisoquinolin-1-yl)piperazin-1-yl]-2-hydroxypropyl}amino)propanoic acid] | n/a (n/a = not active) |  | 57% | 75%
5 | O=c1cc(NCCCN2CCN(c3nccc4ccccc34)CC2)c2ccccc2[nH]1 [Compound 58, 4,4-({3-[4-(isoquinolin-1-yl)piperazin-1-yl]propyl}amino)quinolin-2(1H)-one hydrochloride] | n/a (n/a = not active) |  | 100% | n/a (n/a = not active)
6 | O=C(O)C1CN(c2nccc3ccccc23)CCN1CCCNc1cc(=O)oc2ccccc12 (stereo not shown) [Compound 82, 4-(isoquinolin-1-yl)-1-{3-[(2-oxo-2H-chromen-4-yl)amino]propyl}piperazine-2-carboxylic acid hydrochloride] | n/a (n/a = not active) | n/a (n/a = not active) | 85% | 82%
7 | O=C(O)CC(NC[C@@H](O)CN1CCN(c2nccc3ccc(F)cc23)CC1)C1CCCCC1 (stereo partly drawn) [Compound 136, 3-cyclohexyl-3-({(2R)-3-[4-(7-fluoroisoquinolin-1-yl)piperazin-1-yl]-2-hydroxypropyl}amino)propanoic acid] | n/a (n/a = not active) |  | 57% | 75%
8 | O=C(O)[C@H](NC[C@@H](O)CN1CCN(c2nccc3ccc(F)cc23)CC1)C1CCCCC1 [Compound 139, (2R)-cyclohexyl({(2R)-3-[4-(7-fluoroisoquinolin-1-yl)piperazin-1-yl]-2-hydroxypropyl}amino)acetic acid] | n/a (n/a = not active) |  | n/a (n/a = not active) | 54%
9 | c1ccc2sc(CNCCCN3CCN(c4nccc5ccccc45)CC3)cc2c1 [Compound 119, N-(1-benzothiophen-2-ylmethyl)-3-[4-(isoquinolin-1-yl)piperazin-1-yl]propan-1-amine] | n/a (n/a = not active) |  | n/a (n/a = not active) | 60%
10 | O=C(CN1CCC(Nc2cc(=O)oc3ccccc23)CC1)Nc1nccc2ccccc12 [Compound 117, N-(isoquinolin-1-yl)-2-{4-[(2-oxo-2H-chromen-4-yl)amino]piperidin-1-yl}acetamide] | n/a (n/a = not active) |  | 75% | n/a (n/a = not active)
11 | OCCC(NCCNC1CCN(c2nccc3ccc(F)cc23)CC1)C1CCCCC1 (stereo not shown) [Compound 167, 3-cyclohexyl-3-[(2-{[1-(7-fluoroisoquinolin-1-yl)piperidin-4-yl]amino}ethyl)amino]propan-1-ol] | n/a (n/a = not active) |  | n/a (n/a = not active) | 70%
12 | O=C(O)[C@@H](NC[C@H](O)CN1CCN(c2nccc3ccc(F)cc23)CC1)C1CCCCC1 [Compound 138, (2S)-cyclohexyl({(2S)-3-[4-(7-fluoroisoquinolin-1-yl)piperazin-1-yl]-2-hydroxypropyl}amino)acetic acid] | n/a (n/a = not active) |  | n/a (n/a = not active) | 89%
13 | O=C(CC(NCCNC1CCN(c2nccc3ccc(F)cc23)CC1)C1CCCCC1)NO (stereo not shown) [Compound 191, 3-cyclohexyl-3-[(2-{[1-(7-fluoroisoquinolin-1-yl)piperidin-4-yl]amino}ethyl)amino]-N-hydroxypropanamide] | n/a (n/a = not active) |  | n/a (n/a = not active) | 81%
14 | c1ccc2c(N3CCN(CCCNCc4ccc5c(c4)OCO5)CC3)nccc2c1 [Compound 120, N-(1,3-benzodioxol-5-ylmethyl)-3-[4-(isoquinolin-1-yl)piperazin-1-yl]propan-1-amine] | n/a (n/a = not active) |  | n/a (n/a = not active) | 76%
15 | O=C(O)[C@@H](NC[C@@H](O)CN1CCN(c2nccc3ccc(F)cc23)CC1)C1CCCCC1 [Compound 140, (2S)-cyclohexyl({(2R)-3-[4-(7-fluoroisoquinolin-1-yl)piperazin-1-yl]-2-hydroxypropyl}amino)acetic acid] | n/a (n/a = not active) |  | 68% | 92%
16 | COC(=O)CC(NCCNC1CCN(c2nccc3ccc(F)cc23)CC1)C1CCCCC1 (stereo not shown) [Compound 189, methyl 3-cyclohexyl-3-[(2-{[1-(7-fluoroisoquinolin-1-yl)piperidin-4-yl]amino}ethyl)amino]propanoate] | n/a (n/a = not active) |  | n/a (n/a = not active) | 84%
17 | c1ccc2c(N3CCN(CCNCc4ccc5c(c4)OCO5)CC3)nccc2c1 [Compound 130, N-(1,3-benzodioxol-5-ylmethyl)-2-[4-(isoquinolin-1-yl)piperazin-1-yl]ethanamine] | n/a (n/a = not active) |  | n/a (n/a = not active) | 74%
